Measurements: patent publication US20050009893A1, “Treatment of high blood pressure during the acute phase of a stroke” (Solvay Pharmaceuticals GmbH, priority 2001, published 2005)

Experiment: ACCESS study (acute candesartan cilexetil evaluation in stroke survivors): early antihypertensive treatment after acute stroke versus placebo
Type: in vivo
Settings: 342 enrolled stroke patients
Source text: In order to clarify the question, the ACCESS study (acute candesarten cilexetil evaluation in stroke survivors) was conceived, which has now been completed.
The rational basis of the ACCESS study was the question whether early treatment of elevated blood pressure values in stroke treatment using a substance which affects the renin-angiotensin system in a blocking manner, could reduce the morbidity, mortality and neurological deficits resulting from such strokes. The main question posed related to the use of early antihypertensive treatment of patients with elevated blood pressure values after a stroke. […]
After enrollment of the patients in the study, a randomized therapy with candesartancilexetil or placebo was carried out. Depending upon the measured blood pressure values and patient specific criteria, the therapy was begun with once daily administration of one half to one tablet (corresponding to from 4 to 8 mg candesartancilexetil or placebo). […]

CCOc1nc2cccc(C(=O)O)c2n1Cc1ccc(-c2ccccc2-c2nnn[nH]2)cc1 [candesartan]
cardiovascular end point (number of events) in the course of a twelve month observation period (early treatment from 72 hours up to and including seven days after the stroke, placebo group first treated after one week (30 events)): 17 | difference with respect to the cardiovascular end point in favor of early treatment versus placebo group (twelve month observation period, 17 vs. 30): about 43%
